Laboratory results published in paper PMC10138577, “Prenylated Flavonoids with Selective Toxicity against Human Cancers” (International Journal of Molecular Sciences, 2023).

Assays:
Assay type in all cases: cell-based
[1] = tested on: human lung microvascular endothelial (HLMEC) cells; assay: In vitro cytotoxicity against normal cells (SRB), HLMEC; conditions: HLMEC normal cell line, 72 h exposure, SRB, mean ± SD; read-out: Antiproliferative activity IC50
Source text: (§1) The following established in vitro cell lines were applied: human breast adenocarcinoma (MCF-7 and SK-BR-3), human breast ductal carcinoma (T47D), human prostate adenocarcinoma (PC-3), human prostate carcinoma (Du145), human colorectal adenocarcinoma (HT-29 and LoVo), doxorubicin-resistant human colorectal adenocarcinoma (LoVo/Dx), human myelomonocytic leukemia (MV-4-11), human lung adenocarcinoma (A549), normal murine embryonic fibroblasts (BALB/3T3) and human lung microvascular endothelial (HLMEC). All the cell lines were obtained from the American Type Culture Collection (Rockville, MD, USA) except for LoVo and LoVo/DX, which were received from the Technical University of Gdańsk, Poland, courtesy of Prof. E. Borowski. All the cell lines were maintained in the Institute of Immunology and Experimental Therapy, Wroclaw, Poland. The cells were cultured in the following media: DMEM medium (BALB/3T3), Eagle medium (MCF-7, SK-BR-3, Du145), RPMI medium (HLMEC, MV-4-11) or RPMI 1640 + Opti-MEM (1:1) medium (A549, T47D, LoVo, LoVo/Dx, PC-3, HT-29). The DMEM medium was supplemented with 2 mM L-glutamine and 10% fetal bovine serum. The Eagle medium was supplemented with 4 mM L-glutamine, 10% fetal bovine serum, 1 mM sodium pyruvate for Du145 cells or 2 mM L-glutamine, 1% amino acids and 0.8 mg L^−1 of insulin for MCF-7 and SK-BR-3. The RPMI medium was supplemented with 2 mM L-glutamine, 1 mM sodium pyruvate and 10% fetal bovine serum. The RPMI 1640 + Opti-MEM (1:1) medium was supplemented with 2 mM L-glutamine, 5% fetal bovine serum (PC-3, A549) and 0.8 mg L^−1 insulin (T47D) or 1 mM sodium pyruvate (HT-29, LoVo, LoVoDx) and 0.1 ug/mL doxorubicin (LoVo/Dx). The media contained antibiotics: 100 µg mL^−1 streptomycin and 100 U mL^−1 penicillin. All the cell lines were incubated at 37 °C in a humid atmosphere saturated with 5% CO2.
(§2) The details of this technique were described by Skehan et al.. […] The unbound dye was removed by washing the plates five times with 1% acetic acid, whereas the stain bound to the cells was extracted with 150 µL of 10 mM unbuffered Tris base for determination of the optical density at a 540 nm wavelength in a computer-interfaced, 96-well microtiter plate reader–Multiskan FC photometer (Thermo Scientific, Waltham, MA, USA). The background optical density was measured in the wells filled with culture medium, without the cells.
(§3) Twenty-four hours before incubation with the tested compounds, the cells were seeded in 96-well plates (Sarstedt, Nümbrecht, Germany) at a density of 10^4 cells per well (10^3 cells per well for HLMEC) in 100 µL of culture medium. […] The results were calculated as the IC50 (μM) (half maximal inhibitory concentration), i.e., the concentration of the tested agent that inhibits the proliferation of the cancer cell population by half. […]

[2] = tested on: T47D human breast ductal carcinoma cells; assay: In vitro antiproliferative assay (SRB), T47D; conditions: T47D, 72 h exposure, SRB, mean ± SD
Source text: as §1
(§4) The details of this technique were described by Skehan et al.. After 72 h of incubation with the tested compounds, the cells were fixed in situ by gently adding cold 50% trichloroacetic acid—TCA (50 µL per well). The plates were incubated at 4 °C for 1 h and then washed five times with tap water and air-dried. Next, the cellular material fixed with TCA was stained by adding 50 µL of 0.4% sulforhodamine B dissolved in 1% acetic acid to each well and incubating the wells for 30 min at room temperature. The unbound dye was removed by washing the plates five times with 1% acetic acid, whereas the stain bound to the cells was extracted with 150 µL of 10 mM unbuffered Tris base for determination of the optical density at a 540 nm wavelength in a computer-interfaced, 96-well microtiter plate reader–Multiskan FC photometer (Thermo Scientific, Waltham, MA, USA). The background optical density was measured in the wells filled with culture medium, without the cells.
(§5) Twenty-four hours before incubation with the tested compounds, the cells were seeded in 96-well plates (Sarstedt, Nümbrecht, Germany) at a density of 10^4 cells per well (10^3 cells per well for HLMEC) in 100 µL of culture medium. The analysis of the antiproliferative activity of the compounds was performed using sulforhothamine B (SRB) (for all the adherent cells) or 3-(4,5-dimethylthiazol-2-yl)-2,5-diphenyl tetrazolium bromide (MTT) (for the leukemia cells—MV-4-11). The details of this technique have been previously described by Skehan et al. and Antoszak et al.. An assay was performed after 72 h of exposure at varying concentrations (from 0.1 to 100 µg mL^−1) of xanthohumol (1), aurone (2) and the reference drug cisplatin. Each compound at each concentration was tested in a single experiment, which was repeated at least 3 times. […] The results were calculated as the IC50 (μM) (half maximal inhibitory concentration), i.e., the concentration of the tested agent that inhibits the proliferation of the cancer cell population by half. […]

[3] = tested on: Du145 human prostate carcinoma cells; assay: In vitro antiproliferative assay (SRB), Du145; conditions: Du145, 72 h exposure, SRB, mean ± SD
Source text: as §1, §4, §5

[4] = tested on: LoVo/Dx doxorubicin-resistant human colorectal adenocarcinoma cells; assay: In vitro antiproliferative assay (SRB), LoVo/Dx; conditions: LoVo/Dx, 72 h exposure, SRB, mean ± SD
Source text: as §1, §4, §5

[5] = tested on: MV-4-11 human myelomonocytic leukemia cells; assay: In vitro antiproliferative assay (MTT), MV-4-11; conditions: MV-4-11, 72 h exposure, MTT, mean ± SD
Source text: as §1
The details of this technique were described by Antoszczak et al.. The proliferation inhibition of human myelomonocytic leukemia (MV-4-11) by the tested compounds was measured using the MTT assay. Thus, 20 µL of 3-(4,5-dimethylthiazol-2-yl)-2,5-diphenyl tetrazolium bromide solution was added to each well. Then, the plates were incubated for 4 h in a cell incubator to allow the cells to metabolize the yellow MTT to blue formazan. Next, 80 µL of lysing mixture (consisting of 67.5 g sodium dodecyl sulfate, 225 mL dimethylformamide and 275 mL distilled water) was added to each well. The plates were incubated for 24 h for the formazan crystals to be released from the cells and dissolved, and then the absorbance of each well was read on a 96-well microtiter plate reader (Multiskan FC photometer (Thermo Scientific)) at a 570 nm wavelength.
Twenty-four hours before incubation with the tested compounds, the cells were seeded in 96-well plates (Sarstedt, Nümbrecht, Germany) at a density of 10^4 cells per well (10^3 cells per well for HLMEC) in 100 µL of culture medium. The analysis of the antiproliferative activity of the compounds was performed using sulforhothamine B (SRB) (for all the adherent cells) or 3-(4,5-dimethylthiazol-2-yl)-2,5-diphenyl tetrazolium bromide (MTT) (for the leukemia cells—MV-4-11). The details of this technique have been previously described by Skehan et al. and Antoszak et al.. An assay was performed after 72 h of exposure at varying concentrations (from 0.1 to 100 µg mL^−1) of xanthohumol (1), aurone (2) and the reference drug cisplatin. Each compound at each concentration was tested in a single experiment, which was repeated at least 3 times. […] The results were calculated as the IC50 (μM) (half maximal inhibitory concentration), i.e., the concentration of the tested agent that inhibits the proliferation of the cancer cell population by half. The IC50 values and the mean values ± SD calculated for each experiment separately using GraphPad Prism software (GraphPad Software 9.1.0, San Diego, CA, USA) are presented in Table S1 in the Supplementary Materials.

[6] = tested on: A549 human lung adenocarcinoma cells; assay: In vitro antiproliferative assay (SRB), A549; conditions: A549, 72 h exposure, SRB, mean ± SD
Source text: as §1, §4, §5

[7] = tested on: HT-29 human colorectal adenocarcinoma cells; assay: In vitro antiproliferative assay (SRB), HT-29; conditions: HT-29, 72 h exposure, SRB, mean ± SD
Source text: as §1, §4, §5

[8] = tested on: PC-3 human prostate adenocarcinoma cells; assay: In vitro antiproliferative assay (SRB), PC-3; conditions: PC-3, 72 h exposure, SRB, mean ± SD
Source text: as §1, §4, §5

[9] = tested on: SK-BR-3 human breast adenocarcinoma cells; assay: In vitro antiproliferative assay (SRB), SK-BR-3; conditions: SK-BR-3, 72 h exposure, SRB, mean ± SD
Source text: as §1, §4, §5

[10] = tested on: normal murine embryonic fibroblasts (BALB/3T3); assay: In vitro cytotoxicity against normal cells (SRB), BALB/3T3; conditions: BALB3T3 normal cell line, 72 h exposure, SRB, mean ± SD; read-out: Antiproliferative activity IC50
Source text: as §1, §2, §3

[11] = tested on: MCF-7 human breast adenocarcinoma cells; assay: In vitro antiproliferative assay (SRB), MCF-7; conditions: MCF-7, 72 h exposure, SRB, mean ± SD
Source text: as §1, §4, §5

[12] = tested on: LoVo human colorectal adenocarcinoma cells; assay: In vitro antiproliferative assay (SRB), LoVo; conditions: LoVo, 72 h exposure, SRB, mean ± SD
Source text: as §1, §4, §5

## N.N.[Cl][Pt][Cl] [Cisplatin, cisplatin, reference compound]
[1]
  IC50: 1.26 ± 0.1 µM
[2]
  IC50: 13.1 ± 5.58 µM
[3]
  IC50: 9.36 ± 0.63 µM
[4]
  IC50: 8.97 ± 1.45 µM
[5]
  IC50: 1.11 ± 0.36 µM
[6]
  IC50: 11.3 ± 1.36 µM
[7]
  IC50: 18.9 ± 2.25 µM
[8]
  IC50: 15.3 ± 2.28 µM
[9]
  IC50: 21.6 ± 3.93 µM
[10]
  IC50: 8.96 ± 2.15 µM
[11]
  IC50: 11.3 ± 0.99 µM
[12]
  IC50: 4.32 ± 0.9 µM
